From US9447408B2, “Method of efficiently establishing induced pluripotent stem cells” (Kyoto University, priority 2010, dated 2016)

System: Human dermal fibroblasts (Tig109 line)
Test: Human iPS cell colony formation, 3 genes introduced, various p38 inhibitors
Assay type: cell-based
Settings: 10 μM inhibitor
Method: Human dermal fibroblasts (Tig109 line) were treated using a lentivirus (pLenti6/UbC-Slc7a1) according to the method described by Takahashi, K. et al. in Cell, 131: 861-872 (2007), to express the mouse ecotropic virus receptor Slc7a1 gene. These cells (2×10^5 cells/10 cm dish) were transfected with the four genes using a retrovirus according to the method described by Takahashi, K. et al. in Cell, 131: 861-872 (2007); each compound was added per the schedule shown below. • 1. Oct3/4, Sox2, Klf4, c-Myc, each derived from human, saline • 2. Oct3/4, Sox2, Klf4, c-Myc, each derived from human, DMSO (Day 5-35) • 3. Oct3/4, Sox2, Klf4, c-Myc, each derived from human, SB202190 10 μM (Day 5-20) • 4. Oct3/4, Sox2, Klf4, c-Myc, each derived from human, SB239063 10 μM (Day 5-20) • 5. Oct3/4, Sox2, Klf4, c-Myc, each derived from human, SB202190 10 μM (Day 21-35) • 6. Oct3/4, Sox2, Klf4, c-Myc, each derived from human, SB239063 10 μM (Day 21-35) • 7. Oct3/4, Sox2, Klf4, c-Myc, each derived from human, SB202190 10 μM (Day 5-35) • 8. Oct3/4, Sox2, Klf4, c-Myc, each derived from human, SB239063 10 μM (Day 5-35) Subsequently, three genes (Oct3/4, Sox2, Klf4) were introduced using a retrovirus in the same manner, and the efficiency of iPS cell establishment was compared. • 1. Oct3/4, Sox2, Klf4, each derived from human, saline • 2. Oct3/4, Sox2, Klf4, each derived from human, DMSO (Day 5-35) • 3. […]

Oc1ccc(-c2nc(-c3ccc(F)cc3)c(-c3ccncc3)[nH]2)cc1 [SB202190, 4-(4-fluorophenyl)-2-(4-hydroxyphenyl)-5-(4-pyridyl)imidazole]
number of iPS cell colonies on day 40 after the infection compared with physiological saline and DMSO: increased remarkably | number of positive colonies on day 32 after the infection compared with physiological saline and DMSO: increased
